Laboratory results published in patent publication US8193377B2, “(−)-epigallocatechin gallate derivatives for inhibiting proteasome” (The Hong Kong Polytechnic University, priority 2004, dated 2012).

What was measured:
[1] = target: T1, purified rabbit 20s proteasome (Oryctolagus cuniculus, UniProt G1T4Q9); test: Inhibition of chymotrypsin-like activity of purified 20S proteasome; assay type: biochemical
T1 construct: purchased Boston Biochem (Cambridge, Mass.)
T1 sequence (G1T4Q9 1-263): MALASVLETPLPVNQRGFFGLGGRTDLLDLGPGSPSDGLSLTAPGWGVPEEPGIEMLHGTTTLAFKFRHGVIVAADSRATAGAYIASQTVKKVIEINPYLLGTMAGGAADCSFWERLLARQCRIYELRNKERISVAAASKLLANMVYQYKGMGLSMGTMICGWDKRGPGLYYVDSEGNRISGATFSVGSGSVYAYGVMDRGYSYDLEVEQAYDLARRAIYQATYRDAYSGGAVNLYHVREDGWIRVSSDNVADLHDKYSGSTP
Procedure: Measurement of the chyrnotrypsin-like activity of the 20s proteasome was performed by incubating 0.5 μg of purified rabbit 20s proteasome with 40 μM fluorogenic peptide substrate, Suc-Leu-Leu-Val-Tyr-AMC, with or without various concentrations of natural and synthetic tea polyphenols as described previously (Nam S et. al.).
In order to test this hypothesis, proteasome activity was tested both in vitro and in intact Jurkat T cells with either 1 or (−)-EGCG (as a positive control). First, 1 and commercial (−)-EGCG were dissolved in DMSO and their effects on the chymotrypsin-like activity of purified 20S proteasomes were measured. […] In contrast, (−)-EGCG at 10 μM inhibited 80-90% of the proteasomal chymotrypsin-like activity. Therefore, as predicted, 1 outside of a cellular system is not a proteasome inhibitor.
Up to 25 μM of all protected and unprotected compounds were incubated with a purified 20s proteasome and a fluorogenic substrate for chyrnotrypsin activity for 30 min. The half-maximal inhibitory concentration or IC50 was then determined. […] This is consistent with the results above.

VA-13 cells [2] = test: Immunostaining of apoptotic cells with anti-cleaved PARP-FITC; assay type: cell-based, human; details: 25 μM, 24 h
Procedure: Immunostaining of apoptotic cells was performed by addition of a FITC-conjugated polyclonal antibody that recognizes cleaved poly(ADP-ribose) polymerase (PARP) and visualized on an Axiovert 2 5 (Zeiss; Thornwood, N.Y.) microscope. Cells were grown to about 80% confluency in 60 mm dishes. VA-13 cells were then treated with VP-16, 2, or 2a (25 μM) for 24 h. Following treatment, both suspension and adhering cells were collected and washed twice in PBS pH 7.4. The cells were washed between all steps listed below and all washes are 1 min duration with PBS. Cells were then fixed in ice-cold 70% ethanol, permeabilized in 0.1% Triton-X-100 and blocked for 30 min in 1% bovine serum albumin (BSA) at room temperature. Incubation with the primary FITC-conjugated-p85/PARP antibody was for 30 min at 4° C. in the dark with mild shaking. Cell suspension was then transferred to glass slides in the presence of Vector Shield mounting medium with DAPI. Images were captured using AxioVision 4.1 and adjusted using Adobe Photoshop 6.0 software. Cell death was quantified by counting the number of apoptotic cells over the total number of cells in the same field. Data are mean of duplicate experiments ±SD.
(§1) It has been shown that proteasome inhibition can induce apoptosis in a wide variety of cancer cells, but not in normal, non-transformed cells (An B et al). Jurkat T cells are treated with 25 μM of each of the selected polyphenols and their protected analogs for 24 h to investigate their abilities to induce apoptotic cell death. […] The unprotected 2 induced much less apoptosis (21%), while 25 μM VP-16, used as a positive control, induced 92% apoptosis (FIGS. 10C and 10D). Counterstain with DAPI, which binds to the minor groove in A-T rich regions of DNA, was decreased drastically in apoptotic cells (FIG. 10C), consistent with DNA fragmentation in late stage apoptosis.

VA-13 cells [3] = test: Nuclear staining (Hoechst) for apoptotic morphology, VA-13; assay type: cell-based, human; details: 25 μM, 24 h
Procedure: After each drug treatment, both detached and attached VA-13 and WI-38 cells were stained Hoechst 33342 to assess for apoptosis. Briefly, cells were washed 2× in PBS, fixed for 1 h with 70% ethanol at 4° C., washed 3× in PBS, and stained with […] Hoechst for 30 min in the dark at room temperature. Detached cells were plated on a slide and attached cells were visualized on the plate with a fluorescent microscope at 10× or 40× resolution (Zeiss, Germany). Digital Scientific obtained images with AxioVision 4.1 and adjusted using Adobe Photoshop 6.0.
Next, apoptotic nuclear morphology is examined after treatment with natural (−)-EGCG, 2, and 2a (FIG. 12B). […] A comparison among all the protected analogs was then performed using 25 μM for 24 h. […] All of the protected analogs induced apoptosis in transformed (VA-13), but not normal (WI-38) cells (FIGS. 12B and 12C).

MCF-7 cells = test: MTT assay; assay type: cell-based, human; details: 24 h
Procedure: MTT was used to determine effects of polyphenols on overall proliferation of tumor cells. Human breast MCF-7 cells were plated in a 96 well plate and grown to 70-80% confluency, followed by addition of analogs for 24 h. MTT (1 mg/ml) in PBS was then added to wells and incubated at 37° C. for 4 hours to allow for complete cleavage of the tetrazolium salt by metabolically active cells. Next, the MTT was removed and 100 μl of DMSO was added and colorimetric analysis performed using a multilabel plate reader at 560 nm (Victor^3; Perkin Elmer). Absorbance values plotted are the mean from triplicate experiments.
Treated breast cancer (MCF-7) cells were then treated with 5 or 25 μM of peracetate-protected analogs for 24 h, followed by MTT analysis to determine their effects on cell proliferation. Compound 1 at 25 μM inhibited cellular proliferation by 40% (FIG. 11A).

Jurkat T cells [4] = test: Trypan blue cell death assay in Jurkat T cells; assay type: cell-based, human; details: 24 h
LNCaP cells [5] = test: Soft agar colony formation assay; assay type: cell-based, human; details: 25 μM once at plating, 21 days
LNCaP cells [6] = test: Apoptotic morphological changes, phase contrast; assay type: cell-based, human; details: 25 μM, 24 h
[7] = tested on: ubiquitinated proteins, Bax, p27, IκBα in Jurkat T cells; test: Western blot for ubiquitinated proteins and proteasome targets (Bax, p27, IκBα) in Jurkat T cells; assay type: cell-based, human; details: 25 μM
Procedure: (§2) Whole cells extracts were prepared as described previously (An B, Goldfarb R H, Siman R, Dou Q P. Novel dipeptidyl proteasome inhibitors overcome Bc1-2 protective function and selectively accumulate the cyclin-dependent kinase inhibitor p27 and induce apoptosis in transformed, but not normal, human fibroblasts. Cell Death Differ 1998; 5: 1062-75.). Analysis of Bax, IKBa, p27, PAW, and ubiquitinated protein expression were performed using monoclonal or polyclonal antibodies according to previously reported protocols (An B et. al.).
To determine what effects the synthetic tea analogs had on the proteasome in vivo, Jurkat cells were treated with 25 μM of each synthetic compound for either 4 or 24 h, with (−)-EGCG as a control (FIGS. 9A and 9B). […] This is consistent with the idea that protected analogs are potent inhibitors of the proteasome at an earlier time point and that after 24 h of treatment the ubiquitinated proteins are being depleted by deubiquitinating enzymes. […] The putative ubiquitinated IκBα band is still found in cells treated with 2a, 3a, and 4a (FIG. 9B, Lanes 9, 5, 7). The presumed ubiquinated IκBα band is now absent in the 24 h treatment, possibly due to deubiquitination (FIG. 9B). Actin was used as a loading control in this experiment.
The pro-apoptotic protein Bax and the cyclin-dependent kinase inhibitor p27 are natural proteasome targets. If the peracetate-protected polyphenols inhibit the intact proteasome activity, we would expect accumulation of Bax and p27 in these cells. To test this idea, Jurkat T cells were treated with both protected and unprotected compounds and lysates were analyzed by Western blot using specific antibodies to Bax and p27 (FIG. 15). After 4 h of treatment, the peracetate-protected analogs 24* and 19*, but not their unprotected analogs, were able to increase accumulation of both Bax (by 3- and 2.5-fold, respectively) and p27 (6- and 11-fold, respectively) (FIG. 15A). After 24 h treatment, Bax levels were increased in cells treated with all of the peracetate-protected compounds (13-, 12-, 40- and 36-fold, respectively, by 24*, 19*, 21* and 23*).

Jurkat T cells [8] = test: Western blot for PARP cleavage in Jurkat T cells; assay type: cell-based, human; details: 25 μM, 24 h
Procedure: as §2, §1
To determine if the cell death observed (FIG. 16) was due to the induction of apoptosis, a similar experiment was performed in Jurkat T cells, followed by measurement of caspase-3 activation and PARP cleavage.

[9] = target: T2, proteasomal chymotrypsin-like activity in Jurkat T cells (Homo sapiens, UniProt P28074); test: Proteasomal chymotrypsin-like activity in intact Jurkat T cells / their lysates; assay type: cell-based; details: 25 μM, 24 h, Jurkat T
T2 construct: measurement of the proteasomal chymotrypsin-like activity in the prepared lysates; endogenous in cells; host or cells: Jurkat T cells (human leukemia)
T2 sequence (P28074 60-263): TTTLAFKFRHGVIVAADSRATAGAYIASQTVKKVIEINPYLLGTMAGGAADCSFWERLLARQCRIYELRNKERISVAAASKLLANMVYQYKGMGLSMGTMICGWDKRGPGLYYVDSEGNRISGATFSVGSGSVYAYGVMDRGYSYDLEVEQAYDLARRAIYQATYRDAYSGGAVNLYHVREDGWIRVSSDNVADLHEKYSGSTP
Procedure: VA-13 or WI-38 cells were grown in 24 well plates (2 ml/well) to 70-80% confluency, followed by 24 h treatment with […] (−)-EGCG, 2, or 2a. […] Suc-Leu-Leu-Val-Tyr-AMC substrate was then added for 2.5 h at 37° C. and the chyrnotrypsin-like activity was measured as described above. Alternatively, cells were treated with each compound at 25 μM for 4 or 24 h, and harvested and lysed. Suc-Leu-Leu-Val-Tyr-AMC (40 μM) was then incubated with the prepared cell lysates for 2.5 h and the chymotrypsin-like activity was measured as described above.
If 1 converts to (−)-EGCG inside the cells, proteasome inhibition in vivo should be detected. To examine this possibility, human Jurkat cells was treated with 25 μM of 1 or (−)-EGCG for 12 or 24 h, followed by measurement of proteasome activity by using a chymotrypsin-like specific fluorogenic substrate in intact cells (FIG. 6a) or Western blot for ubiquinated proteins (FIG. 6b). […] To analyze the intracellular level of polyubiquitinated proteins, cells were lysed after 12 hours incubation and subjected to Western blotting. […] It is possible that the amount of EGCG generated from 1, and thus its biological activity inside the cells depends on a combination of factors: the relative permeability of 1 into the cells, the amount of esterase enzymes and the amount of anti-oxidants that may be present in the cells at any time.
To determine whether the unprotected and protected polyphenol analogs could inhibit the proteasomal activity in intact cells, leukemia Jurkat T cells were treated with each compound at 25 μM for 4 and 24 h, followed by collection of cell pellets and measurement of the proteasomal chymotrypsin-like activity in the prepared lysates.

[10] = tested on: phosphorylated Akt (p-Akt); test: Western blot for phosphorylated Akt in Jurkat T cells; assay type: cell-based, human; details: 25 μM, 24 h
Procedure: (−)-EGCG and 1 were incubated with Jurkat T cells for 24 h at 5, 10 and 25 μM, followed by Western blot analysis using a specific antibody to phosphorylated Akt (FIG. 7). […] Actin was used as a loading control.

[11] = Stability test in RPMI 1640 culture medium, HPLC; details: 37° C.
Procedure: The stability of 1 with (−)-EGCG in a culture medium (RMPI) is compared, which mimics the body fluid with a pH value around 8. (−)-EGCG or 1 at 0.1 mM was incubated in 1 mL RMPI at 37° C. at indicated times. At different time points, the medium was analyzed by HPLC for the amount of tested compound remaining.

O=C(O[C@@H]1Cc2c(O)cc(O)cc2O[C@H]1c1cc(O)c(O)c(O)c1)c1cccc(O)c1 (relative stereo) [Compound 2, (2S*,3R*)-trans-5,7-Bis(hydroxy)-2-[3,4,5-tris(hydroxy)phenyl]chroman-3-yl 3-(hydroxy)benzoate]
IC50 ([1]; up to 25 μM, 30 min incubation, read-out: IC50): ~9.9 µM | apoptotic cells (p85 cleaved PARP) (VA-13 cells [2]): 21% | apoptotic nuclear morphology (VA-13 cells [3]): little or no apoptosis

CC(=O)Oc1cc(OC(C)=O)cc(C(=O)O[C@@H]2Cc3c(OC(C)=O)cc(OC(C)=O)cc3O[C@H]2c2cc(OC(C)=O)c(OC(C)=O)c(OC(C)=O)c2)c1 (relative stereo) [Compound 4a, (2S*,3R*)-trans-5,7-Bis(acetyloxy)-2-[3,4,5-tris(acetyloxy)phenyl]chroman-3-yl 3,5-bis(acetyloxy)benzoate]
inhibition of cellular proliferation (MCF-7 cells; 5 μM): 50% | inhibition of cellular proliferation (MCF-7 cells; 25 μM): 70% | cell death (trypan blue) (Jurkat T cells [4]; 25 μM): 83% | colony formation in soft agar (LNCaP cells [5]): most potent inhibitors of colony formation | apoptotic morphological changes (LNCaP cells [6]): dramatic round-up, detachment, and cellular fragmentation | accumulation of p27 ([7]; 24 h): Accumulation of p27 | time course of ubiquitinated protein accumulation ([7]; up to 8 h): as early as 2 h and lasting up to 8 h | apoptosis-specific PARP cleavage (Jurkat T cells [8]): induced apoptosis-specific PARP cleavage

CC(=O)Oc1cc(OC(C)=O)c2c(c1)O[C@H](c1cc(OC(C)=O)c(OC(C)=O)c(OC(C)=O)c1)[C@H](OC(=O)c1cc(OC(C)=O)c(OC(C)=O)c(OC(C)=O)c1)C2 [Compound 1, peracetate (−)-EGCG]
inhibition of cellular proliferation (MCF-7 cells; 25 μM): 40% | inhibition of proteasome activity in intact cells [9]: 42% | reduction of p-Akt level (densitometry) [10]: 73% | inhibition of proteasomal chymotrypsin-like activity ([1]; 10 μM, purified 20S proteasome): completely inactive | time after which compound disappeared completely ([11]; 0.1 mM in RPMI, pH around 8): 2 h | stability relative to (−)-EGCG ([11]; RPMI culture medium): 6 times | cell death (Jurkat T cells [4]; 10 μM): up to 15% | apoptotic morphological changes (LNCaP cells [6]): mild morphological changes | level of ubiquitinated proteins ([7]; 12 h): comparable levels of ubiquitinated proteins to that of natural (−)-EGCG

COc1cc([C@@H]2c3cc4c(cc3[C@@H](O[C@@H]3O[C@@H]5CO[C@@H](C)O[C@H]5[C@H](O)[C@H]3O)[C@H]3COC(=O)[C@H]23)OCO4)cc(OC)c1O [VP-16, reference compound]
apoptotic cells (p85 cleaved PARP) (VA-13 cells [2]): 92%
